Values of other authors as cited in patent publication US9198935B2, “Hydrogen peroxide-based skin disinfectant” (VIROX TECHNOLOGIES INC., priority 2004, dated 2015).
Read-outs that look alike come from different tables or passages of the source.

Tested on: Staphylococcus aureus

OO [hydrogen peroxide]
time to achieve a greater than 6 log reduction in Staphylococcus aureus (25% w/w aqueous solution of hydrogen peroxide): 20 seconds | time to achieve a greater than 6 log reduction in Staphylococcus aureus (solution containing 3% w/w hydrogen peroxide): 20 minutes
